Source: patent publication US9382254B2, “Compounds and pharmaceutical compositions thereof for the treatment of cystic fibrosis” (Galapagos NV, priority 2013, dated 2016)

Biological target: T1, CFTR ΔF508 mutant (Homo sapiens, UniProt P13569, DEL508-508)
T1 construct: expressed in transfected cells; host or cells: CFBE41o- (adenoviral transduction)
Test: YFP-halide influx assay for the CFTR-ΔF508 mutation, gluconate buffer
Assay type: cell-based
Conditions: CFBE41o- cells, forskolin 10.67 μM
Outline: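 Channel opening is read as the fall in YFP fluorescence over 7 s following iodide injection, expressed as 1-F/F0 and plotted versus compound concentration to derive EC50. Cells used were CFBE41o- expressing adenoviral ΔF508 CFTR and halide-sensitive YFP, rescued by 24 h at 27 °C or 24 h modulator treatment at 37 °C.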

T1 sequence (P13569 with tags, fused parts or gaps DEL508-508): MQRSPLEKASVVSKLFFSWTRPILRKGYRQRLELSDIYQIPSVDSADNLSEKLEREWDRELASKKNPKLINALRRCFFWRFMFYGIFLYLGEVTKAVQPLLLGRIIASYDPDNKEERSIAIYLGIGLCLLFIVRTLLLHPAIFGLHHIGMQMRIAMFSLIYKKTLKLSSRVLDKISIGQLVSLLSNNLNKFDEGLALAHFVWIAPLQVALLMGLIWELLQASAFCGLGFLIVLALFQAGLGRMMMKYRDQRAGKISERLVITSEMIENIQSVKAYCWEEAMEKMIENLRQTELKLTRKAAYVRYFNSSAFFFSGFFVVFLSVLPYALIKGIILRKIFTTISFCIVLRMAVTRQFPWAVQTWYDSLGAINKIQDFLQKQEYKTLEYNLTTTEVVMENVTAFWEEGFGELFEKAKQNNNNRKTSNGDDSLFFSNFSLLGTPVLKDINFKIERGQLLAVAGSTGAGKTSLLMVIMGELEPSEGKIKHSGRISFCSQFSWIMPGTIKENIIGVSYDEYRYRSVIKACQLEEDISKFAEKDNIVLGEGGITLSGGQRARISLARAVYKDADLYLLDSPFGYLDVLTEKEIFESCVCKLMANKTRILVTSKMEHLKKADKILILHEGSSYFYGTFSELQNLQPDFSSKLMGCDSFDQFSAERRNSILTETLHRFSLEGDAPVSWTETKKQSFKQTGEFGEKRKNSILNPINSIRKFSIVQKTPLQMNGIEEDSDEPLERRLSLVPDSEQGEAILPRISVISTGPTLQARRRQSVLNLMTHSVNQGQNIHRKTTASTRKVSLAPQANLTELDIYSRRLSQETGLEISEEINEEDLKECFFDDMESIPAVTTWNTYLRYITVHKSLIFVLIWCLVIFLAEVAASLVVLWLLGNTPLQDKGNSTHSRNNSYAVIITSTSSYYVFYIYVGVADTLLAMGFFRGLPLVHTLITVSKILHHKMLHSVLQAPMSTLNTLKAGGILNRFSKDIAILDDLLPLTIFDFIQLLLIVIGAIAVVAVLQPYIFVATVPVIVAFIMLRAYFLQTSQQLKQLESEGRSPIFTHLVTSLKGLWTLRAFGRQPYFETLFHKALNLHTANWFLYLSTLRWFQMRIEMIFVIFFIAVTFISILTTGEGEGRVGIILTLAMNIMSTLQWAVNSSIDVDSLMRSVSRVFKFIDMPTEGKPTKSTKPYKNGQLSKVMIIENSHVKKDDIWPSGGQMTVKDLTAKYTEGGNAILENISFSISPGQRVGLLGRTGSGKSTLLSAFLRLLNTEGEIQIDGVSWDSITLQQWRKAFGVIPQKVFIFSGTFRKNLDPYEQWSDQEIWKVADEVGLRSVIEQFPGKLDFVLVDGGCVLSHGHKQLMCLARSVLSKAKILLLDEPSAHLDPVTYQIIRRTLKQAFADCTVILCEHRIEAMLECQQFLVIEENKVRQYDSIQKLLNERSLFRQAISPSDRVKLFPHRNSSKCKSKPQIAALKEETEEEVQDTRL

Row | EC50 [nM] | SMILES
1 | 400 | CCS(=O)(=O)c1cc(C(N)=O)c(NC(=O)c2ccccc2F)s1 [Compound 128, 5-(ethylsulfonyl)-2-(2-fluorobenzamido) thiophene-3-carboxamide]
2 | 275 | NC(=O)c1cc(S(=O)(=O)C2CCCCC2)sc1NC(=O)c1ccccc1F [Compound 129, 5-(cyclohexylsulfonyl)-2-(2-fluorobenzamido) thiophene-3-carboxamide]
3 | 383 | COc1ccc(CS(=O)(=O)c2cc(C(N)=O)c(NC(=O)c3ccccc3F)s2)cc1 [Compound 130, 2-(2-fluorobenzamido)-5-(4-methoxybenzylsulfonyl) thiophene-3-carboxamide]
4 | 921 | NC(=O)c1cc(S(=O)(=O)N2CCOCC2)sc1NC(=O)C1(O)CC1 [Compound 131, 2-(1-hydroxycyclopropanecarboxamido)-5-(morpholinosulfonyl) thiophene-3-carboxamide]
5 | 3330 | Cc1nc(C(=O)Nc2sc(S(=O)(=O)N3CCOCC3)cc2C(N)=O)cs1 [Compound 132, N-(3-carbamoyl-5-(morpholinosulfonyl)thiophen-2-yl)-2-methylthiazole-4-carboxamide]
6 | 271 | NC(=O)c1cc(S(=O)(=O)N2CCOCC2)sc1NC(=O)c1ccc(Cl)cc1F [Compound 133, 2-(4-chloro-2-fluorobenzamido)-5-(morpholinosulfonyl) thiophene-3-carboxamide]
7 | 946 | NC(=O)c1cc(S(=O)(=O)N2CCOCC2)sc1NC(=O)c1cccc(C2CC2)c1 [Compound 134, 2-(3-cyclopropylbenzamido)-5-(morpholinosulfonyl) thiophene-3-carboxamide]
8 | > 1000 | COc1cc(C)ccc1C(=O)Nc1sc(S(=O)(=O)N2CCOCC2)cc1C(N)=O [Compound 135, 2-(2-methoxy-4-methylbenzamido)-5-(morpholinosulfonyl) thiophene-3-carboxamide]
9 | 291 | Cc1ccccc1C(=O)Nc1sc(S(=O)(=O)N2CCOCC2)cc1C(N)=O [Compound 136, 2-(2-methylbenzamido)-5-(morpholinosulfonyl) thiophene-3-carboxamide]
10 | 263 | NC(=O)c1cc(S(=O)(=O)N2CCOCC2)sc1NC(=O)c1cccc(O)c1 [Compound 137, 2-(3-hydroxybenzamido)-5-(morpholinosulfonyl) thiphene-3-carboxamide]
11 | 313 | NC(=O)c1cc(S(=O)(=O)N2CCOCC2)sc1NC(=O)c1ccc(F)cc1F [Compound 138, 2-(2,4-difluorobenzamido)-5-(morpholinosulfonyl) thiophene-3-carboxamide]
12 | 365 | NC(=O)c1cc(S(=O)(=O)N2C[C@@H]3C[C@H]2CO3)sc1NC(=O)c1ccccc1F [Compound 144, 5-((1S,4S)-2-oxa-5-azabicyclo[2.2.1]heptan-5-ylsulfonyl)-2-(2-fluorobenzamido) thiophene-3-carboxamide]
13 | 241 | NC(=O)c1cc(S(=O)(=O)N2CCCOCC2)sc1NC(=O)c1cc[nH]n1 [Compound 146, N-(5-(1,4-oxazepan-4-ylsulfonyl)-3-carbamoylthiophen-2-yl)-1H-pyrazole-3-carboxamide]
14 | 242 | COc1ccc(CN(C)S(=O)(=O)c2cc(C(N)=O)c(NC(=O)c3ccccc3F)s2)cc1 [Compound 147, 2-(2-fluorobenzamido)-5-(N-(4-methoxybenzyl)-N-methylsulfamoyl)thiophene-3-carboxamide]
15 | 344 | CC(C)(C)OC(=O)N1CCC2(CC1)CCN(S(=O)(=O)c1cc(C(N)=O)c(NC(=O)c3ccccc3F)s1)C2 [Compound 148, tert-butyl 2-(4-carbamoyl-5-(2-fluorobenzamido)thiophen-2-ylsulfonyl)-2,8-diazaspiro[4.5]decane-8-carboxylate]
16 | 517 | CC(C)(O)C1CCN(S(=O)(=O)c2cc(C(N)=O)c(NC(=O)c3ccccc3F)s2)CC1 [Compound 149, 2-(2-fluorobenzamido)-5-(4-(2-hydroxypropan-2-yl)piperidin-1-ylsulfonyl) thiophene-3-carboxamide]
17 | 638 | NC(=O)c1cc(S(=O)(=O)N2CCc3ccccc3C2)sc1NC(=O)c1ccccc1F [Compound 150]
18 | 357 | NC(=O)c1cc(S(=O)(=O)N2Cc3ccccc3C2)sc1NC(=O)c1ccccc1F [Compound 151, 2-(2-fluorobenzamido)-5-(isoindolin-2-ylsulfonyl)thiophene-3-carboxamide]
19 | > 1000 | CN1CCC(N(C)S(=O)(=O)c2cc(C(N)=O)c(NC(=O)c3ccccc3F)s2)CC1 [Compound 155, 2-(2-fluorobenzamido)-5-(N-methyl-N-(1-methylpiperidin-4-yl)sulfamoyl) thiophene-3-carboxamide]
20 | 361 | NC(=O)c1cc(S(=O)(=O)N(Cc2cccc(F)c2)C2CC2)sc1NC(=O)c1ccccc1F [Compound 156, 5-(N-cyclopropyl-N-(3-fluorobenzyl)sulfamoyl)-2-(2-fluorobenzamido) thiophene-3-carboxamide]
21 | 407 | NC(=O)c1cc(S(=O)(=O)N2CCC(c3ccccc3)CC2)sc1NC(=O)c1ccccc1F [Compound 159, 2-(2-fluorobenzamido)-5-(4-phenylpiperidin-1-ylsulfonyl)thiophene-3-carboxamide]
22 | 221 | CN(C1CCOCC1)S(=O)(=O)c1cc(C(N)=O)c(NC(=O)c2ccccc2F)s1 [Compound 161, 2-(2-fluorobenzamido)-5-(N-methyl-N-(tetrahydro-2H-pyran-4-yl)sulfamoyl) thiophene-3-carboxamide]
23 | 331 | N#CC1CCN(S(=O)(=O)c2cc(C(N)=O)c(NC(=O)c3ccccc3F)s2)CC1 [Compound 162, 5-(4-cyanopiperidin-1-ylsulfonyl)-2-(2-fluorobenzamido) thiophene-3-carboxamide]
24 | 272 | CC(C)S(=O)(=O)c1cc(C(N)=O)c(NC(=O)c2ccccc2F)s1 [Compound 163, 2-(2-fluorobenzamido)-5-(isopropylsulfonyl) thiophene-3-carboxamide]
25 | > 1000 | CC(C)(C)S(=O)(=O)c1cc(C(N)=O)c(NC(=O)c2ccccc2F)s1 [Compound 164, 5-(tert-butylsulfonyl)-2-(2-fluorobenzamido) thiophene-3-carboxamide]
26 | > 1000 | NC(=O)c1cc(S(=O)(=O)C2CCOCC2)sc1NC(=O)c1ccccc1F [Compound 165, 2-(2-fluorobenzamido)-5-(tetrahydro-2H-pyran-4-ylsulfonyl)thiophene-3-carboxamide]
27 | 815 | Cc1cc(C(=O)Nc2sc(S(=O)(=O)N3CCOCC3)cc2C(N)=O)n[nH]1 [Compound 166, N-(3-carbamoyl-5-(morpholinosulfonyl)thiophen-2-yl)-5-methyl-1H-pyrazole-3-carboxamide]
28 | 3050 | Cn1nc(C(C)(C)C)cc1C(=O)Nc1sc(S(=O)(=O)N2CCOCC2)cc1C(N)=O [Compound 167, 3-tert-butyl-N-(3-carbamoyl-5-(morpholinosulfonyl)thiophen-2-yl)-1-methyl-1H-pyrazole-5-carboxamide]
29 | 1660 | COc1cc(F)ccc1C(=O)Nc1sc(S(=O)(=O)N2CCOCC2)cc1C(N)=O [Compound 168, 2-(4-fluoro-2-methoxybenzamido)-5-(morpholinosulfonyl) thiophene-3-carboxamide]
30 | 210 | Cc1cc(F)ccc1C(=O)Nc1sc(S(=O)(=O)N2CCOCC2)cc1C(N)=O [Compound 169, 2-(4-fluoro-2-methylbenzamido)-5-(morpholinosulfonyl) thiophene-3-carboxamide]
